In patent US5124339A, “Agents for potentiating the effects of antitumor agents and combating multiple drug resistance” (Burroughs Wellcome Company, priority 1989, dated 1992):
Structures can show the parent of a compound that is named as a salt. *1 amine or outer side, *2 acyl side, *3 side chain or, on linkers, in order; H or OH if unused. Where a SMILES comes first, the peptide text is derived from it. Bridges are numbered along the chain shown (N, C = ends). Roman numbers before positions name the chains, in order. [ ]: non-standard residue; d: D form. Actinocin(9to1) = Cc1c2oc3c(C)ccc(C(=O)[*:1])c3nc-2c(C(=O)[*:2])c(N)c1=O; NMeV = CN[C@H](C(=O)O)C(C)C; Sar = CNCC(=O)O

How the values were obtained:
[1] = In vitro cytotoxicity of potentiating agents, MTT absorbance (drug resistant KB); details: human, kb v-1 cells
Description: (§1) After 48 hours of incubation at 37° C., the media is changed and cells are treated with actinomycin D at 0.1 nM (3-1) or 20 nM (V-1). The test potentiating agent is introduced to one-half the untreated cultures and one-half the Act D treated cultures at 1 and 10 μM. After 96 hours of additional incubation at 37° C., 0.5 mg/ml MTT dye is added, the cells are incubated for three hours, after which the cells are dissolved in DMSO, and the absorbance is then read at 570 nm.

[2] = system: Drug Resistant KB V-1 human KB epidermoid carcinoma cells; experiment: as above; details: KB V-1, 96 h, Act D alone = 1.00
Description: as §1

[3] = In vitro cytotoxicity of potentiating agents, MTT absorbance (drug resistant CHO); details: chinese hamster, c5s32 cells
[4] = system: Drug Resistant C5S32 Chinese hamster ovary cells; experiment: as above; details: for Normalized absorbance (surviving cells), potentiating agent + ACT D, fraction of Act D alone: C5S32, 96 h, Act D alone = 1.00
[5] = system: Wildtype KB 3-1 human KB epidermoid carcinoma cells; experiment: In vitro cytotoxicity of potentiating agents, MTT absorbance (wildtype KB); details: KB 3-1, 96 h, Act D alone = 1.00
Description: as §1

[6] = as above; details: human, kb 3-1 cells
Description: as §1

[7] = In vitro cytotoxicity of potentiating agents, MTT absorbance (wildtype CHO); details: chinese hamster, auxb1 cells
[8] = system: Wildtype AUXB1 Chinese hamster ovary cells; experiment: as above; details: AUXB1, 96 h, Act D alone = 1.00
[9] = system: Chinese hamster ovary cells (AuxBl and C5S32); experiment: Reduction in cell number by Act D alone, MTT absorbance; details: Cricetulus griseus, CHO, read-out: reduction in cell number below the value of completely untreated cultures
[10] = system: resistant sublines of murine leukemia cells; details: Tsuruo et al., Cancer Res.; cited from earlier work

Q: What does the source list for `COc1ccc(CN(CCN(C)C)c2cccc(/C=C/C(=O)O)n2)cc1` [(A), (E)-3-(6-(N-(2-Dimethylaminoethyl)-4-methoxybenzyl-amino)-2-pyridyl)acrylic acid]?
A: viability at 96 h, 1 µM [1]: 70%; viability at 96 h, 10 µM [1]: 73%; Normalized absorbance (surviving cells), potentiating agent + ACT D, fraction of Act D alone ([2]; 1 μM + Act D 20 nM): 0.85; Normalized absorbance (surviving cells), potentiating agent + ACT D, fraction of Act D alone ([2]; 10 μM + Act D 20 nM): 0.80; viability at 96 h, 1 µM [3]: 68%; viability at 96 h, 10 µM [3]: 28%; Normalized absorbance (surviving cells), potentiating agent + ACT D, fraction of Act D alone ([4]; 1 μM + Act D 0.5 μM): 1.00; Normalized absorbance (surviving cells), potentiating agent + ACT D, fraction of Act D alone ([4]; 10 μM + Act D 0.5 μM): 0.13; Normalized absorbance (surviving cells), potentiating agent + ACT D, fraction of Act D alone ([5]; 1 μM + Act D 0.1 nM): 0.96; Normalized absorbance (surviving cells), potentiating agent + ACT D, fraction of Act D alone ([5]; 10 μM + Act D 0.1 nM): 0.97; viability at 96 h, 1 µM [6]: 100%; viability at 96 h, 10 µM [6]: 99%; viability at 96 h, 1 µM [7]: 100%; viability at 96 h, 10 µM [7]: 41%; Normalized absorbance (surviving cells), potentiating agent + ACT D, fraction of Act D alone ([8]; 1 μM + Act D 0.01 μM): 0.64; Normalized absorbance (surviving cells), potentiating agent + ACT D, fraction of Act D alone ([8]; 10 μM + Act D 0.01 μM): 0.05

Q: Which viability at 96 h, 1 µM [1] does the source give for `COc1ccc(CN(CCN(C)C)c2ccc(Br)cn2)cc1` [(B), N-(5-Bromo-2-pyridyl)-N-(4-methoxybenzyl)-N',N'-dimethyl-1,2-ethanediaminehydrobromide] here?
A: 77%

Q: And the viability at 96 h, 10 µM [1]?
A: 56%

Q: What about the “Normalized absorbance (surviving cells), potentiating agent + ACT D, fraction of Act D alone” value (“Normalized absorbance … fraction of Act D alone” below) ([2]; 1 μM + Act D 20 nM) of the same compound?
A: 0.85

Q: And the “Normalized absorbance … fraction of Act D alone” value ([2]; 10 μM + Act D 20 nM)?
A: 0.80

Q: And the viability at 96 h, 1 µM [3]?
A: 100%

Q: What about the viability at 96 h, 10 µM [3] of the same compound?
A: 91%

Q: What about the “Normalized absorbance … fraction of Act D alone” value ([4]; 1 μM + Act D 0.5 μM) of the same compound?
A: 1.00

Q: And the “Normalized absorbance … fraction of Act D alone” value ([4]; 10 μM + Act D 0.5 μM)?
A: 0.56

Q: What about the “Normalized absorbance … fraction of Act D alone” value ([5]; 1 μM + Act D 0.1 nM) of the same compound?
A: 0.89

Q: And the “Normalized absorbance … fraction of Act D alone” value ([5]; 10 μM + Act D 0.1 nM)?
A: 0.92

Q: What about the viability at 96 h, 1 µM [6] of the same compound?
A: 97%

Q: And the viability at 96 h, 10 µM [6]?
A: 86%

Q: What about the viability at 96 h, 1 µM [7] of the same compound?
A: 100%

Q: And the viability at 96 h, 10 µM [7]?
A: 100%

Q: And the “Normalized absorbance … fraction of Act D alone” value ([8]; 1 μM + Act D 0.01 μM)?
A: 1.00

Q: What about the “Normalized absorbance … fraction of Act D alone” value ([8]; 10 μM + Act D 0.01 μM) of the same compound?
A: 1.00

Q: Which “resistance of C5S32 cells to Actinomycin D compared to the parental AuxBI cell line” value ([4]; C5S32 vs parental AuxBI) does the source give for `Cc1c2oc3c(C)ccc(C(=O)N[C@@H]4C(=O)N[C@H](C(C)C)C(=O)N5CCC[C@H]5C(=O)N(C)CC(=O)N(C)[C@@H](C(C)C)C(=O)O[C@@H]4C)c3nc-2c(C(=O)N[C@@H]2C(=O)N[C@H](C(C)C)C(=O)N3CCC[C@H]3C(=O)N(C)CC(=O)N(C)[C@@H](C(C)C)C(=O)O[C@@H]2C)c(N)c1=O` [Actinomycin D, reference compound] (I: T[dV]P[Sar][NMeV] / II: T[dV]P[Sar][NMeV]; ester I:1-I:C, II:1-II:C; linker I:N-II:N via Actinocin(9to1)) here?
A: about 200 fold

Q: What about the inhibition at 0.01 µM [9] of the same compound?
A: 10 to 20%

Q: Which “enhance the activity of antitumor agents against resistant sublines of murine leukemia cells” value (shortened to “enhance the activity of antitumor agents”) [10] does the source give for `COc1ccc(CCN(C)CCCC(C#N)(c2ccc(OC)c(OC)c2)C(C)C)cc1OC` (centres unmarked) [Verapamil] here?
A: enhance the activity of antitumor agents against resistant sublines of murine leukemia cells

Q: For `CCN(CC)CCn1c(=O)c(Cc2ccc(OC)cc2)nc2ccccc21` [caroverine], which “enhance the activity of antitumor agents” value [10] is on record?
A: enhance the activity of antitumor agents against resistant sublines of murine leukemia cells

Q: Which “enhance the activity of antitumor agents” value [10] does the source give for `CN(C)CCCN1c2ccccc2CCc2ccc(Cl)cc21` [clomipramine] here?
A: enhance the activity of antitumor agents against resistant sublines of murine leukemia cells

Q: With `COc1ccc([C@@H]2Sc3ccccc3N(CCN(C)C)C(=O)[C@@H]2OC(C)=O)cc1` [diltiazem] as the compound, how does the “enhance the activity of antitumor agents” value [10] read?
A: enhance the activity of antitumor agents against resistant sublines of murine leukemia cells

Q: With `COC(=O)C1=C(C)NC(C)=C(C(=O)OCCN(C)Cc2ccccc2)C1c1cccc([N+](=O)[O-])c1` (centres unmarked) [nicardipine] as the compound, how does the “enhance the activity of antitumor agents” value [10] read?
A: enhance the activity of antitumor agents against resistant sublines of murine leukemia cells

Q: Which “enhance the activity of antitumor agents” value [10] does the source give for `C=C[C@H]1C[N@@]2CC[C@H]1C[C@@H]2[C@@H](O)c1ccnc2ccc(OC)cc12` [quinidine] here?
A: enhance the activity of antitumor agents against resistant sublines of murine leukemia cells

Q: With `CN1CCN(CCCN2c3ccccc3Sc3ccc(C(F)(F)F)cc32)CC1` [trifluoperazine] as the compound, how does the “enhance the activity of antitumor agents” value [10] read?
A: enhance the activity of antitumor agents against resistant sublines of murine leukemia cells
